Among the data in patent US20110306636A1, “OXAZOLE PYRIDINE DERIVATIVES USEFUL AS S1P1 RECEPTOR AGONISTS” (Merck Serono SA, priority 2009, published 2011) are EC50, IC50 and melting point values, retold here.

Each structure is given as a SMILES string. Counter-ions that a name gives are not always drawn. Like-named read-outs stand apart in the source and are kept apart here.

Series [1] concerns the target T1, S1P1 (Homo sapiens, UniProt P21453). Briefly: 35S-GTPγS binding assay, S1P1 membranes. In kind it is biochemical. The note with it: membranes from CHO cells expressing S1P1; read-out: S1P1/GTPG EC50. The protocol: (§1) Membranes Preparation: Membranes were prepared from CHO cells expressing S1P1 or S1P3 for use in ligand and 35S-GTPγS binding studies. Cells were suspended in 50 mM TRIS, pH 7.4, 2 mM EDTA, 250 mM Sucrose (buffer A) and 1× Complete protease inhibitor cocktail (Roche), and disrupted at 4° C. by N2 decompression using a cell disruption bomb (Parr Instrument). Following centrifugation at 1000 RPM for 10 min at 4° C., the supernatant was diluted (2×) in buffer A and centrifuged again at 19000 RPM for 75 min at 4° C. The pellet was then suspended in 10 mM HEPES, pH 7.4, 1 mM EDTA, 250 mM Sucrose (Buffer B), and 1× Complete EDTA-free protease inhibitor cocktail and homogenized using a potter. Membranes were flash frozen in liquid N2 and stored at −80° C.
(§2) Measurements of 35S-GTPγS Binding: Membranes (1 to 10 μg protein) prepared as described above, were incubated in 96-well Scintiplates (PerkinElmer) with test compounds diluted in DMSO, in 140 μl of 20 mM HEPES, pH 7.4, 10 mM MgCl2, 2 μg/well Saponin, 0.2% fatty acid free BSA (Assay buffer), 125 mM NaCl and 1.5 μM GDP. The assay was initiated with the addition of 60 μl of 1.5 nM [35S]-GTPγS (1100 Ci/mmol; GE Healthcare) in assay buffer. After 60 min incubation at 30° C. on a shaker, plates were centrifuged for 10 min at 2000 RPM. Supernatant was discarded and membrane bound radioactivity was measured on a PerkinElmer 1450 MicroBeta counter. Triplicate samples were averaged and expressed as % response relative to S1P activation in absence of compound (n=2).
The “potency” or the “activity” of the compounds is determined by the EC50 values as evaluated in the above described 35S-GTPγS binding assay.

Series [2] has as its target T2, S1P3 (Homo sapiens, UniProt Q99500). Description: 35S-GTPγS binding assay, S1P3 membranes. The note with it: membranes from CHO cells expressing S1P3; read-out: S1P3/GTPG EC50. In kind it is biochemical. The protocol:
as §1, §2

Series [3] concerns the target T1, S1P1. Description: Receptor binding assay, [33P]sphingosine 1-phosphate competition, S1P1. In short, it runs like this:
(§3)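 SPA competition binding on CHO-cell membranes with 30 pM (S1P1) or 15 pM (S1P3) [33P]S1P in 50 mM HEPES pH 7.5, 5 mM MgCl2, 100 mM NaCl, 0.4% fatty acid-free BSA, 60 min at RT. Percent inhibition normalised to total binding and to non-specific binding (1000-fold unlabelled S1P), triplicates averaged.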

Series [4] has as its target T2, S1P3. Briefly: Receptor binding assay, [33P]sphingosine 1-phosphate competition, S1P3. In short, it runs like this: as §3
Series [5] deals with T3, human S1P1 Receptor fused to the green fluorescent protein (EGFP) (Homo sapiens, UniProt P21453).
T3 construct: host or cells: U2OS (human bone osteosarcoma epithelial cells), CMV promoter, geneticin selection
Briefly: Internalization of S1P1 in S1P1-U2OS cells by cell imaging analysis. In kind it is cell-based. Conditions: 1 hour incubation, 384-well. In short, it runs like this: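 Human U2OS osteosarcoma cells stably expressed human S1P1-EGFP. After 2 h serum starvation in 0.1% fatty-acid-free BSA medium, cells were treated with compounds for 1 h at 37 °C. Cells were then fixed and Hoechst-stained, and internalization was imaged as spots (receptor) per nucleus.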

[6] abbreviates: 96 well-plate, read-out: S1P1 binding IC50 (M) (96 well-plate).
[7] abbreviates: 96 well-plate, read-out: S1P3 binding IC50 (M) (96 well-plate).
[8] abbreviates: 384 well-plate, read-out: S1P1 binding IC50 (M) (384 well-plate).
Where [9] appears, read: 384 well-plate, read-out: S1P3 binding IC50 (M) (384 well-plate).

T3 sequence (P21453 with tags, fused parts or gaps): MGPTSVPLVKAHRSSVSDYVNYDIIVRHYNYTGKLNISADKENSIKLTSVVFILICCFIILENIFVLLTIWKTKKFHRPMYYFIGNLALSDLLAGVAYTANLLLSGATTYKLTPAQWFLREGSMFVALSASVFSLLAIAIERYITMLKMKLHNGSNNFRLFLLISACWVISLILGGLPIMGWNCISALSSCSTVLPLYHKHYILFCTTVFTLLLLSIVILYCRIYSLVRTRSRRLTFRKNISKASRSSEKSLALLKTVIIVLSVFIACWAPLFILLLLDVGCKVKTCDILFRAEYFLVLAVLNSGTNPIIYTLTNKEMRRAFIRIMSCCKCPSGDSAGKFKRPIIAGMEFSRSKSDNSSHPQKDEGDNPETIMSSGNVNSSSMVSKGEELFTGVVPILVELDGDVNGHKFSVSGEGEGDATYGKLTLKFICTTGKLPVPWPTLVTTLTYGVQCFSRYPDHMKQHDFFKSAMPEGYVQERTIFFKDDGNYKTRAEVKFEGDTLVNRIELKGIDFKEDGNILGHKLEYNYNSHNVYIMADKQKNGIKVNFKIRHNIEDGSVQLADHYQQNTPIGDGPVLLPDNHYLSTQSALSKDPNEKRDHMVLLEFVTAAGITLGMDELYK
T2 sequence (Q99500 whole entry, species assumed): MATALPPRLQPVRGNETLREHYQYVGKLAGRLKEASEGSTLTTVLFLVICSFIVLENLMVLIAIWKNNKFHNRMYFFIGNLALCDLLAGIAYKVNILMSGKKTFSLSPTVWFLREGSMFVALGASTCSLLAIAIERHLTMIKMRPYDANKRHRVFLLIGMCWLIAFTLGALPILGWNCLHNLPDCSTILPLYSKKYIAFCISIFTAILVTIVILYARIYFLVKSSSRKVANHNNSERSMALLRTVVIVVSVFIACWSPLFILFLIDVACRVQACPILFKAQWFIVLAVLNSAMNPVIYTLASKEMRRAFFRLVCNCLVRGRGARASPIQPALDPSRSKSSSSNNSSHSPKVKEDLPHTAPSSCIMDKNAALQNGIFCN
T1 sequence (P21453 whole entry, species assumed): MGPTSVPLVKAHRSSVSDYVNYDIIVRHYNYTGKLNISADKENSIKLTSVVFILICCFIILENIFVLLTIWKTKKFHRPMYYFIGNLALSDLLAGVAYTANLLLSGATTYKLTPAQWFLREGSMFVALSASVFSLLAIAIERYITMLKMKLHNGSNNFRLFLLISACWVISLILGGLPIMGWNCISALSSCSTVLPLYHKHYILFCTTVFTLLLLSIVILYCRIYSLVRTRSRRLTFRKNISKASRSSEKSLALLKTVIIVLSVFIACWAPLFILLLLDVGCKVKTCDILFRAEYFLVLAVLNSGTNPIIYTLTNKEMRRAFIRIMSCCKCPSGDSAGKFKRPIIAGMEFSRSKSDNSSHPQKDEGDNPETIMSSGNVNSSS

As for `COCc1cc(-c2nc(-c3cnc(N)c(Cl)c3)no2)ccc1-c1ccccc1C` [Example 14, 3-chloro-5-{5-[2-(methoxymethyl)-2′-methylbiphenyl-4-yl]-1,2,4-oxadiazol-3-yl}pyridin-2-amine], the figures for the EC50 (on S1P1 [1]; on S1P3 [2]; in series [5]) were 5.87 nM, 1460 nM and 44.9 nM, respectively. In addition, the IC50 was found to be 1.89e-08 M on S1P1 [3] (setting [6]) and 1.65e-05 M on S1P3 [4] (setting [7]).
For `CCOc1cc(-c2nc(-c3cnc(N)c(C)c3)no2)ccc1-c1ccccc1C(F)(F)F` [Example 77, 5-{5-[2-ethoxy-2′-(trifluoromethyl)biphenyl-4-yl]-1,2,4-oxadiazol-3-yl}-3-methylpyridin-2-amine], the melting point fell in the range of 163 to 165 °C. Moreover, at S1P1 [3] (setting [8]), the IC50 was determined as 1.49e-08 M. The compound further came in with an EC50 in series [5] of 73.5 nM.
On the same counts, the results for `COCc1cc(-c2nc(-c3cnc(N)c(C)c3)no2)ccc1-c1ccccc1F` [Example 79, 5-{5-[2′-fluoro-2-(methoxymethyl)biphenyl-4-yl]-1,2,4-oxadiazol-3-yl}-3-methylpyridin-2-amine] are 162 to 164 °C, 2.15e-08 M and 58.7 nM.
On to `COCc1cc(-c2nc(-c3ccc(N)nc3)no2)ccc1-c1ccccc1C` [Example 4, 5-{5-[2-(methoxymethyl)-2′-methylbiphenyl-4-yl]-1,2,4-oxadiazol-3-yl}pyridin-2-amine, hydrochloride salt], for which the EC50 at S1P1 [1] worked out at 4.11 nM; on S1P3 [2] it was 2690 nM; in series [5] it was 32 nM. In addition, the IC50 on S1P1 [3] (setting [6]) came out at 1.75e-09 M; on S1P1 [3] (setting [8]), 3.2e-08 M; at S1P3 [4] (setting [7]), 6.07e-06 M; on S1P3 [4] (setting [9]), 7.85e-06 M.
Turning to `COCc1cc(-c2nc(-c3cnc(NCCC(=O)O)c(Cl)c3)no2)ccc1-c1ccccc1C` [Example 37, N-(3-chloro-5-{5-[2-(methoxymethyl)-2′-methylbiphenyl-4-yl]-1,2,4-oxadiazol-3-yl}pyridin-2-yl)-beta-alanine, hydrochloride salt], the results for the EC50 (at S1P1 [1]; on S1P3 [2]; in series [5]) were 2.37 nM, 2110 nM and 19.8 nM, respectively. Besides, the IC50 at S1P1 [3] (setting [6]) was 1.07e-09 M; on S1P1 [3] (setting [8]), 1.06e-08 M; at S1P3 [4] (setting [7]) it was 2.86e-06 M; on S1P3 [4] (setting [9]) it was 1.5e-05 M.
Regarding `COCc1cc(-c2nc(-c3cnc(N)c(Cl)c3)no2)ccc1-c1ccccc1Cl` [Example 47, 3-chloro-5-{5-[2′-chloro-2-(methoxymethyl)biphenyl-4-yl]-1,2,4-oxadiazol-3-yl}pyridin-2-amine], the melting point lay in the range of 182 to 184 °C. Also, the IC50 on S1P1 [3] (setting [6]) turned out to be 6.02e-09 M. In addition, at S1P3 [4] (setting [7]), the IC50 is 2e-05 M. This compound yielded an EC50 in series [5] of 26.8 nM.
On to `COCc1cc(-c2nc(-c3cnc(N)c(C)c3)no2)ccc1-c1ccccc1Cl` [Example 76, 5-{5-[2′-chloro-2-(methoxymethyl)biphenyl-4-yl]-1,2,4-oxadiazol-3-yl}-3-methylpyridin-2-amine], for which the melting point is 143 to 145 °C. Also, on S1P1 [3] (setting [8]), the IC50 was found to be 2.16e-08 M. In series [5], this compound came in with an EC50 of 37.4 nM.
